Here are results for three compounds from patent US5066664A, “2-(hydroxy-2-alkylphenylamino)-oxazolines and thiazolines as anti-glaucoma and vasoconstrictive agents” (Allergan, Inc., priority 1990, dated 1991).

Structures can show the parent of a compound that is named as a salt. Where two headings read alike, the source gives them in different places.

In test [1] the test system is alpha 1 adrenergic receptors. Description: Rabbit Aorta: Alpha 1 adrenergic receptor assay (isolated thoracic aorta rings, tension). The settings on record: 37° C., cumulative addition.
Test [2] relates to New Zealand white rabbit eyes. Kind of test: Intraocular pressure (anti-glaucoma) assay in unanesthetized rabbits, topical unilateral administration. The format is in vivo. The following applies: for Maximum Difference in Intraocular Pressure After Solution Administration, Ipsilateral (Treated) Eye: 0.1% (W/V) in distilled water, single 50 microliter drop topically to one eye; for Maximum Difference in Intraocular Pressure After Solution Administration, Contralateral (Untreated) Eye: single 50 microliter drop to the other eye, contralateral (untreated) eye received saline. On the procedure:
The anti-glaucoma activity (ability to maintain or reduce intraocular pressure) of the compounds of the present invention was confirmed by the following assay procedure. This assay procedure is generally recognized in the art to provide pertinent information with respect to the anti-glaucomaactivity of the formulations assayed. Thus, each of the compounds of the invention to be tested was dissolved in distilled water at a concentration of 0.1% (W/V). Each of these solutions was administered topically and unilaterally to one eye of a drug-naive, unanesthetized New Zealand white rabbit in a single 50 microliter drop. The contralateral eye received an equal volume of saline prior to determining the intraocular pressure after the mixture was administered. Also, approximately 10 microliters of 0.5% (W/V) proparacine (topical anesthetic) was applied to the corneas of each of the rabbits before determining intraocular pressure. As a control test, six (6) other drug-naive, unanesthetized New Zealand white rabbits were treated and tested as described above except that no compound of the invention was included in the solutions administered to the eyes.
The intraocular pressure was determined in both eyes of each rabbit both before and after the solutions were administered. Such intraocular pressure determinations were made in the conventional manner using conventional equipment.

Test [3] addresses alpha 1 adrenergic receptors. The following applies: control substance; Shayes and Green, J. Pharmacol. Exp. Ther. 1971, Vol 180, pp 317-325; cited from earlier work.

What is called EC50 is the concentration needed to bring the measured effect to its halfway point. In test [1], `Cc1c(O)cccc1NC1=NCCO1` [Compound 1, 2-(3-Hydroxy-2-methylphenylamino)-Oxazoline, hydrochloride] returned a half-maximal effective concentration (EC50) of 602 ± 108 nM. Further, the “Maximum Difference in Intraocular Pressure After Solution Administration, Ipsilateral (Treated) Eye” value in test [2] is listed as -3.3 ± 1.0 mm Hg. Besides, the “Maximum Difference in Intraocular Pressure After Solution Administration, Contralateral (Untreated) Eye” value in test [2] (0.1% (W/V)) is recorded as -7.3 ± 1.0 mm Hg. Besides, in test [2] (result in words, New Zealand white rabbit, 0.1% (W/V)), the “reduction of intraocular pressure in the contralateral eye compared with the ipsilateral eye” value is listed as “the reduction in the contralateral eye is greater than in the ipsilateral eye”.

The compound `Cc1c(O)ccc(NC2=NCCO2)c1C.Cl` [Compound 2, 2-(2,3-Dimethyl-4-hydroxyphenylamino)-oxazoline, hydrochloride] displayed a concentration giving a half-maximal response (EC50) in test [1] of 19.9 ± 15.6 nM. In test [2], the “Maximum Difference in Intraocular Pressure After Solution Administration, Ipsilateral (Treated) Eye” value is given as -3.9 ± 1.9 mm Hg. In test [2] (0.1% (W/V)), the “Maximum Difference in Intraocular Pressure After Solution Administration, Contralateral (Untreated) Eye” value is -3.3 ± 0.5 mm Hg.

On to `CNC[C@H](O)c1cccc(O)c1` [L-phenylephrine], for which the EC50 in test [3] is 182 nM.
